Results: US4782073A, “Amides of [(5,6-dichloro-3-oxo-9-alpha-substituted-2,3,9,9-alpha-tetrahydrofluoren -7-yl-oxyl]acetic acids, and pharmaceutical compositions thereof” (Merck & Co., Inc., priority 1986, dated 1988)

Legend:
[1] = Distribution between octanol and aqueous buffer at pH 7.4; assay type: physicochemical
Procedure: a. Distribution between octanol and aqueous buffer at pH = 7.4 were
determined as described by R. A. Sherrer and S. M. Howard, J. Med. Chem.

[2] = Protein binding (bovine serum albumin); assay type: in vitro ADME; settings: 4 × 10^-4 M bovine serum albumin
Excerpt: b. % Bound using 4 × 10^-4 M bovine serum albumin.

pKa = assay type: physicochemical; settings: read-out: pV-a
[3] = system: cat cerebrocortical tissue slices; assay: in vitro cat cerebrocortical tissue slice assay (inhibition of HCO3- stimulated swelling); assay type: cell-based; settings: Felis catus, 1 h, compounds dissolved as sodium salts, 60 min incubation at 37° C, read-out: I50, concentration giving 50% inhibition of swelling
Excerpt: The (1) in vitro cat cerebrocortical tissue slice assay, (2) the in vitro primary rat astrocyte culture assay and (3) the in vivo cat head injury assay. The first assay, the in vitro cat cerebrocortical tissue slice assay has been described by Marshall, L. F.; Shapiro, H. M.; Smith, R. W. In "Seminars in Neurological Surgery: Neural Trauma"; Popp, A. J.; Bourke, R. S.; Nelson, L. R.; Kimelberg, H, K,. Eds.; Raven Press: New York, 1979; p 347, by Bourke, R. S.; Kimelberg, H, K.; Daze, M. A. in Brain Res. 1978, 154, 196, and by Bourke, R. S.; Kimelberg, H. K,; Nelson, L. R. in Brain Res. 1976, 105, 309. This method constitutes a rapid and accurate method of determining the intrinsic chloride inhibitory properties of the compounds of the invention in the target tissue.
Using the in vitro cat cerebrocortical tissue slice assay, described in Example 1, compounds of the present invention can be tested for activity. This test provides the principal in vitro evaluation and consists of a determination of concentration vs. response curve. […]
Following the 60 minute incubation period, tissue slices were separated from incubation medium by filtration, reweighed, and homogenized in 1 N HClO4 (10% w/v) for electrolyte analysis. […] Control slice swelling is expressed as microliters per gram initial preswelling fresh weight. […]

astroglial edema = settings: in vitro assay, J. Med. Chem. 25, 567 (1982); cited from earlier work
[4] = system: clinical cases of head injury; settings: J. Med. Chem. 25, 567 (1982); cited from earlier work
[5] = system: animals receiving experimental in vivo head injury; settings: in vivo head injury assay, J. Med. Chem. 25, 567 (1982); cited from earlier work

Structure (SMILES) | logD [1] | fraction unbound [2] | pKa (pKa) | IC50 [3] [nM] | activity in vitro (astroglial edema) | reduction of mortality in clinical cases of head injury [4] | activity in vivo [5]
CCC[C@]12CCC(=O)C=C1c1c(cc(OCC(=O)N[C@H](C(=O)O)C(C)C)c(Cl)c1Cl)C2 | 2 | 0.03 | 4.6 |  |  |  | 
CCC[C@]12CCC(=O)C=C1c1c(cc(OCC(=O)N[C@@H](Cc3ccc(O)cc3)C(=O)O)c(Cl)c1Cl)C2 | 1.99 | 0.022 | 4.12 |  |  |  | 
CCC[C@]12CCC(=O)C=C1c1c(cc(OCC(=O)N[C@@H](Cc3ccccc3)C(=O)O)c(Cl)c1Cl)C2 | 2 | 0.057 | 4.58 |  |  |  | 
CCC[C@]12CCC(=O)C=C1c1c(cc(OCC(=O)N[C@@H](CO)C(=O)O)c(Cl)c1Cl)C2 | 1.91 | 0.024 | 4.1 |  |  |  | 
C=C(CC)C(=O)c1ccc(OCC(=O)O)c(Cl)c1Cl [ethacrynic acid] |  |  |  |  | exhibited activity | effective in reducing mortality | exhibited activity
CCC[C@]12CCC(=O)C=C1c1c(cc(OCC(=O)N[C@@H](Cc3c[nH]cn3)C(=O)O)c(Cl)c1Cl)C2 | 1.95 | 0.079 | 6.9 |  |  |  | 

Further lines, with some results ahead:

logD [1] | fraction unbound [2] | pKa (pKa) | IC50 [3] [nM] | Structure (SMILES) | activity in vitro (astroglial edema) | reduction of mortality in clinical cases of head injury [4] | activity in vivo [5]
1.99 |  | 4.1 | 10 | CCC[C@]12CCC(=O)C=C1c1c(cc(OCC(=O)NS(=O)(=O)CC)c(Cl)c1Cl)C2 [SO2 C2 H5] |  |  | 
1.97 | 0.028 | 4.25 | 20 | CCC[C@]12CCC(=O)C=C1c1c(cc(OCC(=O)NS(C)(=O)=O)c(Cl)c1Cl)C2 [Example 4, R(+)-N-Methylsulfonyl-[(5,6-dichloro-3-oxo-9a-propyl-2,3,9,9a-tetrahydro-1H-fluoren-7-yl)oxy]acetamide] |  |  | 
1.96 | 0.019 | 3.78 |  | CCC[C@]12CCC(=O)C=C1c1c(cc(OCC(=O)Nc3nnn[nH]3)c(Cl)c1Cl)C2 |  |  | 
1.99 | 0.016 | 3.65 |  | CCC[C@]12CCC(=O)C=C1c1c(cc(OCC(=O)NC#N)c(Cl)c1Cl)C2 [Example 5, R(+)-N-Cyano-[(5,6-dichloro-3-oxo-9a-propyl-2,3,9,9a-tetrahydro-1H-fluoren-77-yl)oxy]acetamide] |  |  | 
